Converted amounts (≈) assume the structure as drawn.
Legend:
Assay in all cases: minimum inhibitory concentration, agar dilution assay
Type in all cases: cell-based
Proteus sp. P22 = conditions: agar dilution, 35° C., 20 hours; read-out: minimum inhibitory concentration
Procedure: (§1) The antibiotic activities shown in Tables I-1 to I-8 above were determined in the following manner.
(§2) The minimum inhibitory concentrations of the compounds of formula (I-a-1) or (I-b-1) in Tables I-1 to I-7 and the known compounds in Table I-8 on the various microorganisms shown in the above tables were measured by an agar dilution assay method using a brain heart infusion agar medium "Difco" (a product of Difco Laboratories Inc.)
(§3) A sample of the test compound was dissolved in sterile distilled water and diluted to prepare a two-fold dilution series of the compound solution. In a petri plate of 9 cm diameter, 1 ml of the compound solution was added to 9 ml of molten sterile heart infusion agar medium (Difco Laboratories Inc.) at about 60° C. to prepare the compound-containing agar plate. An overnight culture of each test organism indicated in the above table which was prepared by stationary cultivation in Trypto-Soy broth (Eiken Chemi. Co., Ltd.) at 35° C. for 18 to 20 hours, was diluted with the Trypto-Soy broth to give approximately 10^8 cells/ml and the diluted inoculum was inoculated onto the compound-containing agar plates. After cultivating the plates at 35° C. for 20 hours, the growth of the organism was observed. The minimum concentration of the compound at which no growth of the microorganism was noted was determined, and defined as the minimum inhibitory concentration of the test compound.

[1] = test system: Bacillus subtilis ATCC 6633; conditions: ATCC6633, agar dilution, 35° C., 20 hours, read-out: minimum inhibitory concentration
Procedure: as §1, §2, §3

[2] = test system: Enterobacter aerogenes E19; conditions: Klebsiella aerogenes, E19; agar dilution, 35° C., 20 hours; read-out: minimum inhibitory concentration
Procedure: as §1, §2, §3

Enterobacter sp. E8 = conditions: SP.E8, agar dilution, 35° C., 20 hours, read-out: minimum inhibitory concentration
Procedure: as §1, §2, §3

Proteus vulgaris GN76 = conditions: GN76, agar dilution, 35° C., 20 hours, read-out: minimum inhibitory concentration
Procedure: as §1, §2, §3

[3] = test system: Staphylococcus epidermidis; conditions: agar dilution, 35° C., 20 hours, read-out: minimum inhibitory concentration
Procedure: as §1, §2, §3

Escherichia coli RGN 823 = conditions: RGN823, agar dilution, 35° C., 20 hours, read-out: minimum inhibitory concentration
Procedure: as §1, §2, §3

Providencia sp. P8 = conditions: SP.P8, agar dilution, 35° C., 20 hours, read-out: minimum inhibitory concentration
Procedure: as §1, §2, §3

[4] = test system: Pseudomonas aeruginosa NCTC10490; conditions: NCTC10490, agar dilution, 35° C., 20 hours, read-out: minimum inhibitory concentration
Procedure: as §1, §2, §3

[5] = test system: Pseudomonas aeruginosa IFO3445; conditions: IFO3445, agar dilution, 35° C., 20 hours, read-out: minimum inhibitory concentration
Procedure: as §1, §2, §3

Serratia marcescens T55 = conditions: T55, agar dilution, 35° C., 20 hours, read-out: minimum inhibitory concentration
Procedure: as §1, §2, §3

[6] = test system: Comamonas terrigena B-996; conditions: B996, agar dilution, 35° C., 20 hours, read-out: minimum inhibitory concentration
Procedure: as §1, §2, §3

Escherichia coli K-12 = conditions: K12, agar dilution, 35° C., 20 hours, read-out: minimum inhibitory concentration
Procedure: as §1, §2, §3

[7] = test system: Staphylococcus aureus Russell; conditions: agar dilution, 35° C., 20 hours, read-out: minimum inhibitory concentration
Procedure: as §1, §2, §3

[8] = test system: Staphylococcus aureus FDA 209P; conditions: FDA209P, agar dilution, 35° C., 20 hours, read-out: minimum inhibitory concentration
Procedure: as §1, §2, §3

Proteus mirabilis P6 = conditions: P6, agar dilution, 35° C., 20 hours, read-out: minimum inhibitory concentration
Procedure: as §1, §2, §3

Serratia marcescens S18 = conditions: S18, agar dilution, 35° C., 20 hours, read-out: minimum inhibitory concentration
Procedure: as §1, §2, §3

[9] = test system: Klebsiella pneumoniae K-13; conditions: K13, agar dilution, 35° C., 20 hours, read-out: minimum inhibitory concentration
Procedure: as §1, §2, §3

Proteus rettgeri P7 = conditions: Providencia rettgeri, P7; agar dilution, 35° C., 20 hours; read-out: minimum inhibitory concentration
Procedure: as §1, §2, §3

Sarcina lutea = conditions: Micrococcus luteus; agar dilution, 35° C., 20 hours; read-out: minimum inhibitory concentration
Procedure: as §1, §2, §3

[10] = test system: Staphylococcus aureus Smith; conditions: agar dilution, 35° C., 20 hours, read-out: minimum inhibitory concentration
Procedure: as §1, §2, §3

Enterobacter cloacae 45 = conditions: Enterobacter cloacae, 45; agar dilution, 35° C., 20 hours; read-out: minimum inhibitory concentration
Procedure: as §1, §2, §3

[11] = test system: Citrobacter freundii GN 346; conditions: GN346, agar dilution, 35° C., 20 hours, read-out: minimum inhibitory concentration
Procedure: as §1, §2, §3

Alcaligenes faecalis A 1 = conditions: A1, agar dilution, 35° C., 20 hours, read-out: minimum inhibitory concentration
Procedure: as §1, §2, §3

Row | SMILES | MIC (Proteus sp. P22) [µg/mL] | MIC [1] [µg/mL] | MIC [2] [µg/mL] | MIC (Enterobacter sp. E8) [µg/mL] | MIC (Proteus vulgaris GN76) [µg/mL] | MIC [3] [µg/mL] | MIC (Escherichia coli RGN 823) [µg/mL] | MIC (Providencia sp. P8) [µg/mL] | MIC [4] [µg/mL] | MIC [5] [µg/mL] | MIC (Serratia marcescens T55) [µg/mL] | MIC [6] [µg/mL] | MIC (Escherichia coli K-12) [µg/mL] | MIC [7] [µg/mL] | MIC [8] [µg/mL] | MIC (Proteus mirabilis P6) [µg/mL] | MIC (Serratia marcescens S18) [µg/mL] | MIC [9] [µg/mL] | MIC (Proteus rettgeri P7) [µg/mL] | MIC (Sarcina lutea) [µg/mL] | further results
1 | CC(=O)NCCSC1=C(C(=O)O)N2C(=O)C(C(C)O)C2C1 (stereo not drawn) [PS-3B, 3-(2-acetamidoethylthio)-6-(1-hydroxyethyl)-7-oxo-1-azabicyclo[3.2.0]hept-2-ene-2-carboxylic acid, reference compound] | 17 (≈ 54.1 µM) | 0.004 (≈ 0.0127 µM) | 0.27 (≈ 0.859 µM) | 0.07 (≈ 0.223 µM) | 8.5 (≈ 27 µM) | 0.07 (≈ 0.223 µM) | 1.06 (≈ 3.37 µM) | 0.27 (≈ 0.859 µM) | 34 (≈ 108 µM) | 17 (≈ 54.1 µM) | 2.13 (≈ 6.78 µM) | 0.001 (≈ 0.00318 µM) | 0.07 (≈ 0.223 µM) | 0.13 (≈ 0.414 µM) | 0.07 (≈ 0.223 µM) | 0.53 (≈ 1.69 µM) | 2.13 (≈ 6.78 µM) | 8.5 (≈ 27 µM) | 17 (≈ 54.1 µM) | 0.004 (≈ 0.0127 µM) | MIC [10]: 0.13 µg/mL (≈ 0.414 µM); MIC (Enterobacter cloacae 45): 1.06 µg/mL (≈ 3.37 µM); MIC [11]: 0.53 µg/mL (≈ 1.69 µM); MIC (Alcaligenes faecalis A 1): 0.07 µg/mL (≈ 0.223 µM)
2 | CC(C)C1C(=O)N2C(C(=O)O)=C(SCCO)CC12 (stereo not drawn) [R1 --CH3, R21 --CH2 CH2 OH] | 50 (≈ 184 µM) | 0.39 (≈ 1.44 µM) | 12.5 (≈ 46.1 µM) | 12.5 (≈ 46.1 µM) | 25 (≈ 92.1 µM) | 0.39 (≈ 1.44 µM) | 12.5 (≈ 46.1 µM) | 6.25 (≈ 23 µM) | 25 (≈ 92.1 µM) | 12.5 (≈ 46.1 µM) | 50 (≈ 184 µM) | 0.05 (≈ 0.184 µM) | 12.5 (≈ 46.1 µM) | 0.39 (≈ 1.44 µM) | 0.2 (≈ 0.737 µM) | 25 (≈ 92.1 µM) | 12.5 (≈ 46.1 µM) | 12.5 (≈ 46.1 µM) | 12.5 (≈ 46.1 µM) | 0.39 (≈ 1.44 µM) | MIC [10]: 0.39 µg/mL (≈ 1.44 µM); MIC (Enterobacter cloacae 45): 25 µg/mL (≈ 92.1 µM); MIC [11]: 12.5 µg/mL (≈ 46.1 µM); MIC (Alcaligenes faecalis A 1): 1.56 µg/mL (≈ 5.75 µM)
3 | CC(O)C1C(=O)N2C(C(=O)O)=C(SCCO)CC12 (stereo not drawn) [R1 --OH**, R21 --CH2 CH2 OH] | 100 (≈ 366 µM) | 0.013 (≈ 0.0476 µM) | 0.39 (≈ 1.43 µM) | 0.2 (≈ 0.732 µM) | 25 (≈ 91.5 µM) | 0.2 (≈ 0.732 µM) | 6.25 (≈ 22.9 µM) | 0.78 (≈ 2.85 µM) | 25 (≈ 91.5 µM) | 25 (≈ 91.5 µM) | 12.5 (≈ 45.7 µM) | 0.013 (≈ 0.0476 µM) | 0.2 (≈ 0.732 µM) | 0.2 (≈ 0.732 µM) | 0.013 (≈ 0.0476 µM) | 3.13 (≈ 11.5 µM) | 12.5 (≈ 45.7 µM) | 25 (≈ 91.5 µM) | 6.25 (≈ 22.9 µM) | 0.013 (≈ 0.0476 µM) | MIC [10]: 0.1 µg/mL (≈ 0.366 µM); MIC (Enterobacter cloacae 45): 1.56 µg/mL (≈ 5.71 µM); MIC [11]: 0.78 µg/mL (≈ 2.85 µM); MIC (Alcaligenes faecalis A 1): 0.39 µg/mL (≈ 1.43 µM)

Continued by falling MIC (Proteus sp. P22), values first:

Row | MIC (Proteus sp. P22) [µg/mL] | MIC [1] [µg/mL] | MIC [2] [µg/mL] | MIC (Enterobacter sp. E8) [µg/mL] | MIC (Proteus vulgaris GN76) [µg/mL] | MIC [3] [µg/mL] | MIC (Escherichia coli RGN 823) [µg/mL] | MIC (Providencia sp. P8) [µg/mL] | MIC [4] [µg/mL] | MIC [5] [µg/mL] | MIC (Serratia marcescens T55) [µg/mL] | MIC [6] [µg/mL] | MIC (Escherichia coli K-12) [µg/mL] | MIC [7] [µg/mL] | MIC [8] [µg/mL] | MIC (Proteus mirabilis P6) [µg/mL] | MIC (Serratia marcescens S18) [µg/mL] | MIC [9] [µg/mL] | MIC (Proteus rettgeri P7) [µg/mL] | MIC (Sarcina lutea) [µg/mL] | SMILES | further results
4 | 100 (≈ 366 µM) | 6.25 (≈ 22.9 µM) | 12.5 (≈ 45.7 µM) | 6.25 (≈ 22.9 µM) | 50 (≈ 183 µM) | 3.13 (≈ 11.5 µM) | 12.5 (≈ 45.7 µM) | 6.25 (≈ 22.9 µM) | 12.5 (≈ 45.7 µM) | 12.5 (≈ 45.7 µM) | 50 (≈ 183 µM) | 0.1 (≈ 0.366 µM) | 3.13 (≈ 11.5 µM) | 3.13 (≈ 11.5 µM) | 0.39 (≈ 1.43 µM) | 50 (≈ 183 µM) | 25 (≈ 91.5 µM) | 25 (≈ 91.5 µM) | 50 (≈ 183 µM) | 1.56 (≈ 5.71 µM) | CC(O)[C@H]1C(=O)N2C(C(=O)O)=C(SCCO)C[C@H]12 (stereo partly drawn) [R1 --OH*, R21 --CH2 CH2 OH] | MIC [10]: 3.13 µg/mL (≈ 11.5 µM); MIC (Enterobacter cloacae 45): 6.25 µg/mL (≈ 22.9 µM); MIC [11]: 12.5 µg/mL (≈ 45.7 µM); MIC (Alcaligenes faecalis A 1): 6.25 µg/mL (≈ 22.9 µM)
5 | 50 | 0.1 | 3.13 | 3.13 | 25 | 0.2 | 12.5 | 3.13 | 12.5 | 12.5 | 12.5 | 0.025 | 3.13 | 0.2 | 0.05 | 12.5 | 6.25 | 12.5 | 12.5 | 0.1 | CCC1C(=O)N2C(C(=O)O)=C(SCCO)CC12 (stereo not drawn) [R1 H, R21 --CH2 CH2 OH, sodium 3-(2-hydroxyethylthio)-6-ethyl-7-oxo-1-azabicylo[3.2.0]hept-2-ene-2-carboxylate] | MIC [10]: 0.1 µg/mL; MIC (Enterobacter cloacae 45): 6.25 µg/mL; MIC [11]: 3.13 µg/mL; MIC (Alcaligenes faecalis A 1): 1.56 µg/mL
